We go through 7 compounds from patent publication US8765776B2, “Antihypertensive pharmaceutical composition” (Boryung Pharmaceutical Co., Ltd., priority 2011, dated 2014).

Assay [1] has as its system spontaneously hypertensive rats (SHR). The experiment in a line: 4-week repeated oral administration antihypertensive test in spontaneously hypertensive rats (non-invasive tail-cuff CODA-6). To be noted: 4 weeks; for Antihypertensive degree with consecutive 4-week administration of drugs, as compared to blood pressure prior to administration (Mean): n=8, F1 = Fimasartan potassium trihydrate 3 mg/kg, F2 = 10 mg/kg, L = Losartan potassium 10 mg/kg, V = Valsartan 10 mg/kg, A1 = Amlodipine besylate 0.5 mg/kg, A2 = 1.6 mg/kg. It is filed as in vivo, rat. An excerpt: This study is intended to examine antihypertensive action of individual drugs. For this purpose, test drugs, i.e., Fimasartan potassium trihydrate, Losartan potassium salt, Valsartan, Amlodipine besylate, a combination of Fimasartan potassium trihydrate with Amlodipine besylate, a combination of Losartan potassium salt with Amlodipine besylate, and a combination of Valsartan with Amlodipine besylate were repeatedly and orally administered for 4 weeks to rats with essential hypertension. […] In this manner, the antihypertensive action was compared and evaluated between the individual drugs.
8-week old male spontaneously hypertensive rats (SHR), weighing 230 to 250 g, were purchased from Charles River Japan (CRJ). The animals were used in the test, after being subjected to an acclimation period until the animals were 18 to 19-week old (340 to 380 g) to reach a mean blood pressure of 160 to 170 mmHg. Animals with a good condition were selected by minute observation over the acclimation period prior to the test, and divided into individual test groups, each consisting of 8 animals (n=8). Only the selected animals, from which a rise in blood pressure was confirmed using a non-invasive blood pressure monitoring system (CODA-6), were assigned to the test group.
Low, medium and high doses of the drugs according to individual drugs were established in the preliminary test. […] All the doses referred to those used in the already performed test. Doses and drug-administered groups used in the final main test are as follows.
As an ARB compound, Losartan potassium salt, Valsartan and Fimasartan potassium trihydrate were respectively purchased and used from Zhejiang Huahai Pharmaceutical Co., Ltd. 10 mg/kg of Losartan potassium salt was taken as an L group, and 10 mg/kg of Valsartan was taken as a V group. With regard to Fimasartan potassium trihydrate, 3 mg/kg was taken as an F1 group, and 10 mg/kg was taken as an F2 group.
As a calcium channel blocker, Amlodipine besylate (home-made by the method described in U.S. Pat. No. 4,572,909) was used. 0.5 mg/kg of Amlodipine besylate was taken as an A 1 group, and a dose of 1.6 mg/kg was taken as an A2 group. The test materials and the comparative drugs were each suspended in 0.5% carboxymethylcellulose sodium salt (CMC—Na, Sigma) prior to using. As a control group, 0.5% CMC alone was administered.
{circumflex over (3)} Test Method • Administration: Upon carrying out the administration, the drug preparation was heated to a suitable temperature of 35° in a water bath, followed by forced oral administration of 5 mL/kg via a stomach sonde. • Measurement of blood pressure: Blood pressure of rats was measured as follows. Rats were restrained and placed in a heating device which was then heated to a temperature of about 40° (based on the temperature of 37° in a restraining cage) over 13 minutes, such that the tail blood vessels were engorged, and the blood pressure of rats was measured using CODA-6 equipment that monitors a blood pressure by means of the software of the main body through a pair of cuffs attached to the tail. The non-invasive blood pressure measuring method via CODA-6 (Kent Scientific Corporation) enables a long-term blood pressure measuring test that should involve repeated administration of test materials, which is not feasible with a direct blood pressure measuring method through arterial cannulation, such as conventionally used physiograph or power lab.
Changes in blood pressure were confirmed with focusing on changes in mean arterial pressure (MAP), and changes in diastolic and systolic blood pressure, heart rate, and body weight were used as references for other changes in the experimental results.

For assay [2], the system named is patients with mild to moderate essential hypertension. The note with it: Week 12 of drug administration, dose 60 mg to 120 mg; cited from earlier work.

SMILES strings stand for the structures. Structures can show the parent of a compound that is named as a salt.

With `CCCCc1nc(C)c(CC(=S)N(C)C)c(=O)n1Cc1ccc(-c2ccccc2-c2nnn[nH]2)cc1` [Comparative Example 2, Fimasartan potassium trihydrate], in assay [1] (potassium trihydrate), the “Antihypertensive degree with consecutive 4-week administration of drugs, as compared to blood pressure prior to administration (Mean)” value is on record as −50 mmHg.
Turning to `CCCCC(=O)N(Cc1ccc(-c2ccccc2-c2nnn[nH]2)cc1)[C@H](C(=O)O)C(C)C` [Comparative Example 4, Valsartan], the “Antihypertensive degree with consecutive 4-week administration of drugs, as compared to blood pressure prior to administration (Mean)” value in assay [1] is on record as −32 mmHg.
For the compound `CCOC(=O)C1=C(COCCN)NC(C)=C(C(=O)OC)C1c1ccccc1Cl` (single isomer, unassigned) [Comparative Example 6, Amlodipine besylate], the “Antihypertensive degree with consecutive 4-week administration of drugs, as compared to blood pressure prior to administration (Mean)” value in assay [1] is listed as −20 mmHg.
For the compound `CCOC(=O)C1=C(COCCN)NC(C)=C(C(=O)OC)C1c1ccccc1Cl` (single isomer, unassigned) [Comparative Example 5, Amlodipine besylate], in assay [1], the “Antihypertensive degree with consecutive 4-week administration of drugs, as compared to blood pressure prior to administration (Mean)” value is reported as −13 mmHg.
For the compound `CCCCc1nc(C)c(CC(=S)N(C)C)c(=O)n1Cc1ccc(-c2ccccc2-c2nnn[nH]2)cc1` [Comparative Example 1, Fimasartan potassium trihydrate], in assay [1] (3 mg/kg Fimasartan potassium trihydrate vs 10 mg/kg Losartan potassium or Valsartan), the “Antihypertensive effect compared to Comparative Example 3 and Comparative Example 4” value is “superior antihypertensive effect”. In addition, in assay [1] (potassium trihydrate), the “Antihypertensive degree with consecutive 4-week administration of drugs, as compared to blood pressure prior to administration (Mean)” value is given as −35 mmHg.
As for `CCCCc1nc(Cl)c(CO)n1Cc1ccc(-c2ccccc2-c2nn[nH]n2)cc1` [Comparative Example 3, Losartan potassium salt], in assay [1], the “Antihypertensive degree with consecutive 4-week administration of drugs, as compared to blood pressure prior to administration (Mean)” value was −20 mmHg.
For the compound `CCCCc1nc(Cl)c(CO)n1Cc1ccc(-c2ccccc2-c2nn[nH]n2)cc1` [Losartan], the “Change in diastolic blood pressure (DBP) in the sitting position relative to baseline” value in assay [2] is recorded as −8.56±7.72 mmHg.
